From PubChem BioAssay (NCI) come the findings set out here.

What all share (test): inhibition of tumour cell growth, NCI panel, 48 h
In test [1] the test system is ACHN renal.
Test [2] relates to DU-145 prostate.
Test [3] relates to HOP-92 NSCLC.
Test [4] relates to IGROV1 ovarian.
Test [5] concerns MALME-3M melanoma.
In test [6] the test system is NCI-H460 lung.
In test [7] the test system is OVCAR-4 ovarian.
Test [8] deals with SK-MEL-2 melanoma.
The subject of test [9] is SNB-19 CNS.
Test [10] has as its system SNB-75 CNS.

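Where inhibition never reached the appropriate level, the endpoint shown equals the highest concentration tested. Otherwise, values were interpolated linearly from a five-concentration, 48-hour dose response in 96-well plates. GI50 is the concentration that inhibits growth by half. At the TGI there is no net growth.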

Turning to `CCCCCCCCCCCCOC1C(CNC(=O)C2OC3OC(C)(C)OC3C2NC(=O)Nc2ccc(CC(=O)OC)cc2)OC2OC(C)(C)OC21` (stereo unspecified), the GI50 in [1] is more than 100 µM; in test [2], more than 77 µM; in test [3] it was more than 100 µM; in test [4], more than 90.9 µM; in [5] it was more than 78.1 µM; in test [6] it was more than 100 µM. Moreover, the GI50 in test [7], in [8], in test [9] and in test [10] was more than 100 µM throughout. In addition, the TGI in test [1], in test [2], in test [3], in test [4], in test [5] and in test [6] was more than 100 µM each time. The TGI in test [7], in test [8], in test [9] and in test [10] was more than 100 µM in each case.
Regarding `COc1cc(Nc2nc3cc(N)cc(N)c3nc2-c2ccccc2)cc(OC)c1OC`, the GI50 was 16.7 µM in test [1]; 21.9 µM in test [2]; 2.73 µM in test [3]; 15.7 µM in [4]; 13 µM in [5]; 17.1 µM in test [6]. The GI50 is 0.0313 µM in [7], 15.9 µM in test [8] and 33.1 µM in [9]. Further, the TGI in test [1] came to 43 µM; in [2], 74 µM; in test [3], 21 µM; in test [4], 58.2 µM; in test [5], 28.2 µM; in test [6] it was 52.8 µM. Moreover, the TGI is 0.892 µM in test [7], 35.2 µM in [8] and more than 100 µM in test [9].
`CC(C)C1=CC(=O)C(C)(C2C(O)CC3(C)C4CC=C5C(CCC(OC6OC(CO)C(O)C(O)C6OC6OC(C)C(O)C(O)C6O)C5(C)C)C4(C)C(=O)CC23C)O1` (stereo unspecified): the TGI in test [1], in test [2], in test [3], in test [4], in test [5] and in test [6] was more than 100 µM each time. Further, the TGI in test [7], in [9] and in test [10] was more than 100 µM throughout.
For `CCOC(=O)/C(=C/N1CCN(C(=O)c2ccco2)C1=S)C(=O)c1ccccc1`, the GI50 is 8.48 µM in [1]; 8.04 µM in test [2]; 23 µM in test [3]; more than 50 µM in test [4]; 13.3 µM in test [5]; 4.87 µM in test [6]. For the same compound, the values for the GI50 in test [7], in test [9] and in test [10] were 31 µM, 35.6 µM and 46 µM, respectively. For the same compound, the TGI in test [1] was 17.6 µM; in test [2] it was 24.1 µM; in [3], more than 50 µM; in test [4] it was more than 50 µM; in test [5], 48.4 µM; in [6], 15.4 µM. For the same compound, the TGI in test [7], in test [9] and in test [10] was more than 50 µM each time.
`O=C(CC(Cl)=C(Cl)Cl)Nc1ccccc1`: the GI50 in test [1], in test [2], in test [4], in test [5], in test [6] and in test [7] was more than 100 µM throughout. The GI50 in [8] and in test [9] was more than 100 µM each time. In addition, the TGI in test [1], in [2], in [3], in [4], in test [5] and in [6] was more than 100 µM throughout. Moreover, the TGI in test [7], in test [8] and in test [9] was more than 100 µM in each case.
In the case of `CC(=O)c1ccc2c(c1)c1cc(C(C)=O)ccc1n2CCNC(C)C`, the GI50 in [2] was 0.453 µM; in test [3], 0.764 µM; in [4] it was 0.341 µM; in [5] it was 0.23 µM; in test [6], 0.308 µM; in [7], 0.37 µM. For the same compound, the GI50 was 0.569 µM in [8], 0.3 µM in test [9] and 0.383 µM in test [10]. Besides, the TGI in test [2] amounted to 5.42 µM; in test [3] it was 4.27 µM; in test [4], 6.73 µM; in test [5] it was 0.596 µM; in [6], 1.81 µM; in test [7] it was 2.9 µM. Moreover, the results for the TGI in test [8], in [9] and in test [10] were 2.23 µM, 1.62 µM and 2.41 µM, respectively.
For `CCN1C/C(=C\c2cc(OC)c(OC)cc2OC)C(=O)/C(=C/c2cc(OC)c(OC)cc2OC)C1`, the GI50 was 2.08 µM in test [1]; 1.85 µM in test [2]; 2.46 µM in [3]; 3.06 µM in [4]; 1.94 µM in test [5]; 3.73 µM in test [7]. The GI50 in test [8] was 2.29 µM; in test [9], 4.23 µM; in test [10] it was 5.86 µM. Besides, the TGI in test [1] is 4.45 µM; in test [2], 4.12 µM; in [3], 17.8 µM; in test [4], 11.2 µM; in test [5], 3.59 µM; in test [7], more than 100 µM. Further, the TGI in [8] was found to be 7.87 µM; in test [9], 23.7 µM; in test [10], 78 µM.
`Cc1nc2ccc(Nc3nc(Cl)nc(N4CCOCC4)n3)cc2n1Cc1ccccc1`: the GI50 in [1] was 9.35 µM; in test [2] it was 28.1 µM; in test [3], 2.07 µM; in [4], 2.58 µM; in test [5], 5.24 µM; in test [6], 11.9 µM. The GI50 was 3.54 µM in test [8], 18.2 µM in test [9] and 4.47 µM in test [10]. The TGI was 28.7 µM in test [1]; more than 100 µM in [2]; 6.36 µM in test [3]; 6.41 µM in [4]; 24.5 µM in [5]; more than 100 µM in [6]. The TGI is 26 µM in test [8], more than 100 µM in test [9] and 29.6 µM in [10].
